Measurements taken from patent US7462600B2, “Macrolides” (Pfizer Inc, priority 2004, dated 2008).
Values after ≈ are worked out from the molar mass of the structure shown. Where two headings read alike, the source gives them in different places.

Assays:
Assay type in all cases: cell-based
[1] = test system: Haemophilus influenzae 1218; test: MIC, microtiter broth dilution (NCCLS M100-S14), H. influenzae 1218 (susceptible)
Method in brief: (§1)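 Antibacterial activity is expressed as the MIC from broth microdilution. Reading follows the NCCLS M100-S14 performance standards, and stocks are made in DMSO at 40 mg/ml.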

[2] = test system: Streptococcus pneumoniae 1175; details: microtiter broth dilution
Method in brief: as §1

[3] = test system: Streptococcus pneumoniae 1095; details: microtiter broth dilution
Method in brief: as §1

[4] = test system: Streptococcus pyogenes 1079; test: MIC, microtiter broth dilution (NCCLS M100-S14), S. pyogenes 1079 (ermB)
Method in brief: as §1

[5] = test system: Streptococcus pneumoniae 1016; test: MIC, microtiter broth dilution (NCCLS M100-S14), S. pneumoniae 1016 (susceptible)
Method in brief: as §1

[6] = H. influenzae 1218 (susceptible)
[7] = S. pneumoniae 1016 (susceptible)

Compound	MIC H. influenzae 1218 [1, 6]	MIC S. pneumo. 1175 ([2]; S. pneumoniae 1175 (mefA))	MIC S. pneumo. 1095 ([3]; S. pneumoniae 1095 (ermB))	MIC S. pyogenes 1079 ([4]; S. pyogenes 1079 (ermB))	MIC S. pneumo. 1016 [5, 7]	MIC H. influenzae 1218 ([1]; Haemophilus influenzae 1218)	MIC S. pneumo. 1175 ([2]; Streptococcus pneumoniae 1175)	MIC S. pneumo. 1095 ([3]; Streptococcus pneumoniae 1095)	MIC S. pyogenes 1079 ([4]; Streptococcus pyogenes 1079)	MIC S. pneumo. 1016 ([5]; Streptococcus pneumoniae 1016)
CCC1OC(=O)C(C)C(=O)C(C)C(OC2OC(C)CC(N(C)C)C2O)C(C)(OC)CC(C)C(=O)C(C)C2N(CC3CCN(Cc4ccc(-c5ccccn5)cc4)C3)C(=O)OC12C (centres unmarked) [13.05]	4 µg/mL (≈ 4.63 µM)	0.5 µg/mL (≈ 0.579 µM)	16 µg/mL (≈ 18.5 µM)	>64.00 µg/mL	<0.06 µg/mL	–	–	–	–	–
CCC1OC(=O)C(C)C(=O)C(C)C(OC2OC(C)CC(N(C)C)C2O)C(C)(OC)CC(C)C(=O)C(C)C2N(CC3CCCN3C(=O)c3cnc4ccccc4c3)C(=O)OC12C (centres unmarked) [10.07]	2 µg/mL (≈ 2.35 µM)	0.25 µg/mL (≈ 0.294 µM)	<0.06 µg/mL	>64.00 µg/mL	<0.06 µg/mL	–	–	–	–	–
CCC1OC(=O)C(C)C(=O)C(C)C(OC2OC(C)CC(N(C)C)C2O)C(C)(OC)CC(C)C(=O)C(C)C2N(CC3CCN(Cc4cccc5nccnc45)C3)C(=O)OC12C [Example 11.02, 3-descladinosyl-11,12-dideoxy-6-O-methyl-3-oxo-12,11-(oxycarbonyl-(1-((quinoxalin-8-yl)-methyl)-((S)-pyrrolidin-3-yl)-methyl)-imino)-erythromycin A]	0.5 µg/mL (≈ 0.597 µM)	0.25 µg/mL (≈ 0.298 µM)	<0.06 µg/mL	4 µg/mL (≈ 4.77 µM)	<0.06 µg/mL	–	–	–	–	–
CC[C@H]1OC(=O)[C@H](C)C(=O)[C@H](C)[C@@H](O[C@@H]2O[C@H](C)C[C@H](N(C)C)[C@H]2O)[C@](C)(OC)C[C@@H](C)C(=O)[C@H](C)[C@H]2N(CC3(O)CN(Cc4ccc5nccnc5c4)C3)C(=O)O[C@]12C [7.03]	0.5 µg/mL (≈ 0.595 µM)	0.12 µg/mL (≈ 0.143 µM)	0.12 µg/mL (≈ 0.143 µM)	>64.00 µg/mL	<0.06 µg/mL	–	–	–	–	–
CCC1OC(=O)C(C)(F)C(=O)C(C)C(OC2OC(C)CC(N(C)C)C2O)C(C)(OC)CC(C)C(=O)C(C)C2N(CC3CCCN3C(=O)c3nccc4ccccc34)C(=O)OC12C (centres unmarked) [10.29]	2 µg/mL (≈ 2.3 µM)	0.12 µg/mL (≈ 0.138 µM)	<0.06 µg/mL	16 µg/mL (≈ 18.4 µM)	<0.06 µg/mL	–	–	–	–	–
CCC1OC(=O)C(C)C(=O)C(C)C(OC2OC(C)CC(N(C)C)C2O)C(C)(OC)CC(C)C(=O)C(C)C2N(CC3CN(C(=O)c4cnc5ccccc5c4)C3)C(=O)OC12C.O=CO (centres unmarked) [4.38]	–	–	–	–	–	2 µg/mL	<0.06 µg/mL	2 µg/mL	>64.00 µg/mL	<0.06 µg/mL
CCC1OC(=O)C(C)C(=O)C(C)C(OC2OC(C)CC(N(C)C)C2O)C(C)(OC)CC(C)C(=O)C(C)C2N(CC3CCN(Cc4ccnc5ccccc45)C3)C(=O)OC12C [Example 11.11, 3-descladinosyl-11,12-dideoxy-6-O-methyl-3-oxo-12,11-(oxycarbonyl-(1-((quinolin-4-yl)-methyl)-((S)-pyrrolidin-3-yl)-methyl)-imino)-erythromycin A]	1 µg/mL (≈ 1.19 µM)	0.12 µg/mL (≈ 0.143 µM)	0.12 µg/mL (≈ 0.143 µM)	8 µg/mL (≈ 9.56 µM)	<0.06 µg/mL	–	–	–	–	–
CC[C@H]1OC(=O)[C@H](C)[C@@H](OC(=O)N2CCCC2)[C@H](C)[C@@H](O[C@@H]2O[C@H](C)C[C@H](N(C)C)[C@H]2O)[C@](C)(OC)C[C@@H](C)C(=O)[C@H](C)[C@H]2N(CC3CN(Cc4c[nH]c5ncccc45)C3)C(=O)O[C@]12C [Example 5.10, 3-descladinosyl-11,12-dideoxy-6-O-methyl-12,11-(oxycarbonyl-(1-((1H-pyrrolo[2,3-b]pyridin-3-yl)-methyl)-(azetidin-3-yl)-methyl)-imino)-3-(pyrrolidine-1-carbonyl)-erythromycin A]	–	–	–	–	–	1 µg/mL (≈ 1.1 µM)	<0.06 µg/mL	<0.06 µg/mL	2 µg/mL (≈ 2.2 µM)	<0.06 µg/mL
CCC1OC(=O)C(C)C(=O)C(C)C(OC2OC(C)CC(N(C)C)C2O)C(C)(OC)CC(C)C(=O)C(C)C2N(CC3CCN(Cc4c[nH]c(-c5ccccc5)n4)C3)C(=O)OC12C (centres unmarked) [13.08]	2 µg/mL (≈ 2.35 µM)	0.5 µg/mL (≈ 0.587 µM)	4 µg/mL (≈ 4.69 µM)	64 µg/mL (≈ 75.1 µM)	<0.06 µg/mL	–	–	–	–	–
CC[C@H]1OC(=O)[C@H](C)C(=O)[C@H](C)[C@@H](O[C@@H]2O[C@H](C)C[C@H](N(C)C)[C@H]2O)[C@](C)(OC)C[C@@H](C)C(=O)[C@H](C)[C@H]2N(CC3(C)CN(Cc4ccc5nccnc5c4)C3)C(=O)O[C@]12C [6.04]	–	–	–	–	–	1 µg/mL (≈ 1.19 µM)	0.25 µg/mL (≈ 0.298 µM)	0.25 µg/mL (≈ 0.298 µM)	>64.00 µg/mL	<0.06 µg/mL
